In paper doi:10.1101/2023.03.24.534094v2 (biorxiv, 2023):
Like-named read-outs stand apart in the source and are kept apart here.

What was measured:
Test in all cases: biochemical
AurA = biological target: T1, AurA (Homo sapiens, UniProt O14965)
T1 sequence (O14965 1-403): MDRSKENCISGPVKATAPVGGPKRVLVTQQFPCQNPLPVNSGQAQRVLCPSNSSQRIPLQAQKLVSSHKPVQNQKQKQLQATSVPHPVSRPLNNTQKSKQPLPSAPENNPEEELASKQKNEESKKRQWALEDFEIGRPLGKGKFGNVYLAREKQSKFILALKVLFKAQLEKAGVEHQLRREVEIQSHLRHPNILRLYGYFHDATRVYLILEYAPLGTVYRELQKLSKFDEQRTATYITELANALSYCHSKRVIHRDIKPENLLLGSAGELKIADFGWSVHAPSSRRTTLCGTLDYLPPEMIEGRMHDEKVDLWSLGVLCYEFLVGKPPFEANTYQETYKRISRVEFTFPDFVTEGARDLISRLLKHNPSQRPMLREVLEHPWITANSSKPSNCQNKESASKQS

CASK = biological target: T2, CASK (Homo sapiens, UniProt O14936)
T2 sequence (O14936 1-926): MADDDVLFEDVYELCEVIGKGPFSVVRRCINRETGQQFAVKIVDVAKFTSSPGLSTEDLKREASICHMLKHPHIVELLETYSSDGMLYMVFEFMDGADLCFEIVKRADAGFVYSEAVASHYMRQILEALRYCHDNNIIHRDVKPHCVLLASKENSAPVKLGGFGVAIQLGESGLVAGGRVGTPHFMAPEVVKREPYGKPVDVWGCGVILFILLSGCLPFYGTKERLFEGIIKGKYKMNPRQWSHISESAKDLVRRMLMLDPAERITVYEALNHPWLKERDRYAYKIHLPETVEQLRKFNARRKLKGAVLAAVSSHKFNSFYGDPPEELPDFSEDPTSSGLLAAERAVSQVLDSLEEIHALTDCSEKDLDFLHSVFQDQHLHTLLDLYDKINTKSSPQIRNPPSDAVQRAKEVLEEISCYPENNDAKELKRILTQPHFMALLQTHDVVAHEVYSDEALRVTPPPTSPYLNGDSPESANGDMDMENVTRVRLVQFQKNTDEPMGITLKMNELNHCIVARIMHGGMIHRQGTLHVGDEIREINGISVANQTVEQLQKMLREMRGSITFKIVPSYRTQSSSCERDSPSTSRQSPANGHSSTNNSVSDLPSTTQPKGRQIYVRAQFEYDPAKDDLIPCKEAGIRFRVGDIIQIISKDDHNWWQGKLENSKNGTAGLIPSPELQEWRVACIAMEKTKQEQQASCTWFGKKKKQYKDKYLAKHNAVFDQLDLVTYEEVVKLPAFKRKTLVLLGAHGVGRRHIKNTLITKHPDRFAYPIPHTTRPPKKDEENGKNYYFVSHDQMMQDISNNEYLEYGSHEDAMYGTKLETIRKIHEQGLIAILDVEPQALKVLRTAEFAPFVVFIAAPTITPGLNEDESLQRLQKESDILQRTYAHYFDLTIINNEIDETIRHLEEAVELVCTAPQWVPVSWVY

CK2a1 = CK2a1 (Homo sapiens, UniProt P68400)
CaMK2b = CaMK2b (Homo sapiens, UniProt Q13554)
FGFR2 = FGFR2 (Homo sapiens, UniProt P21802)
Haspin = biological target: T3, Haspin (Homo sapiens, UniProt Q8TF76)
T3 sequence (Q8TF76 1-798): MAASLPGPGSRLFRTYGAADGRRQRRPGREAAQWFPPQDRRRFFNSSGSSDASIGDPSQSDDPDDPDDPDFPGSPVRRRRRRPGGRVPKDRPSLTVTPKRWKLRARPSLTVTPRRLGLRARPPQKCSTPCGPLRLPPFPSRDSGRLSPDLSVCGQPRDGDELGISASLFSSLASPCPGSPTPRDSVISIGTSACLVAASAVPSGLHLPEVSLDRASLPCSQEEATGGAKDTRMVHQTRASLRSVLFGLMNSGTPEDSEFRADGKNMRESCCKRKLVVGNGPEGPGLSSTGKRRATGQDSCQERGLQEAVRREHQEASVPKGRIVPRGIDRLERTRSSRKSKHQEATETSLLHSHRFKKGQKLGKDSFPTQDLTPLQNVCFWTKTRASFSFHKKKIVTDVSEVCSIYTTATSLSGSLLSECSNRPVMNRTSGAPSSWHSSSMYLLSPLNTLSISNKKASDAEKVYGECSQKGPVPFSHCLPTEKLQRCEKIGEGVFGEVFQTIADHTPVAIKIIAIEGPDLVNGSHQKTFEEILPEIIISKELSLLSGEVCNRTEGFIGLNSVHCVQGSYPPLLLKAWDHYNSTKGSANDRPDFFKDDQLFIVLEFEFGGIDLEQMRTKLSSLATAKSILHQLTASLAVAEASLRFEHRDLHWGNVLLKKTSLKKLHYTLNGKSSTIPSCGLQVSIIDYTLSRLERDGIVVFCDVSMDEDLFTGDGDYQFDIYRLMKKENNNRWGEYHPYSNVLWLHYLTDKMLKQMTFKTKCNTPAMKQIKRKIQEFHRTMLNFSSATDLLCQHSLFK

MAPKAPK2 = MAPKAPK2 (Homo sapiens, UniProt P49137)
NQO2A = biological target: T4, NQO2A (Homo sapiens, UniProt P16083)
T4 sequence (P16083 1-231): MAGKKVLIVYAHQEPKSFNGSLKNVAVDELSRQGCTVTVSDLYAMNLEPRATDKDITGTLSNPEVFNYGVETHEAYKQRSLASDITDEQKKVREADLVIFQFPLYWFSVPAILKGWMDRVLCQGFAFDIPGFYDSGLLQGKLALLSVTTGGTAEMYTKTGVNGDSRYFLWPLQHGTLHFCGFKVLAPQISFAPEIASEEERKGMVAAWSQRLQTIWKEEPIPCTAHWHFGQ

PAK4 = PAK4 (Homo sapiens, UniProt O96013)
Sequence of PAK4 (O96013 whole entry): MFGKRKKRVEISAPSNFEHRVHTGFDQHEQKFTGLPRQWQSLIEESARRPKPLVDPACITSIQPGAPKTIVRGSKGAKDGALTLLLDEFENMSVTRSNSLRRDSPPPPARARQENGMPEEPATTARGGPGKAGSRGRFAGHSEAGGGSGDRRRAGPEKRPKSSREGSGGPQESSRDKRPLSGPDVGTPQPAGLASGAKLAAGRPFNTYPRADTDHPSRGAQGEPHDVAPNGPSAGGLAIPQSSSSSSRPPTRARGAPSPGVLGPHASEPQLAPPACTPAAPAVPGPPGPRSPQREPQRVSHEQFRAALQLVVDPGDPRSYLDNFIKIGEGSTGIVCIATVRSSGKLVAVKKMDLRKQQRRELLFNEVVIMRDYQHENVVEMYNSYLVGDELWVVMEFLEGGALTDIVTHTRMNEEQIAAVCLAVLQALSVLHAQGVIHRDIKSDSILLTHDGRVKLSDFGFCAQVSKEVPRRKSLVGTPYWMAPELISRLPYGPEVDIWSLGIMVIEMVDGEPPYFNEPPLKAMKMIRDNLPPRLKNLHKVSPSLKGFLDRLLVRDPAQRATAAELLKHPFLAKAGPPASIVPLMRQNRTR

Sequence of MAPKAPK2 (P49137 whole entry): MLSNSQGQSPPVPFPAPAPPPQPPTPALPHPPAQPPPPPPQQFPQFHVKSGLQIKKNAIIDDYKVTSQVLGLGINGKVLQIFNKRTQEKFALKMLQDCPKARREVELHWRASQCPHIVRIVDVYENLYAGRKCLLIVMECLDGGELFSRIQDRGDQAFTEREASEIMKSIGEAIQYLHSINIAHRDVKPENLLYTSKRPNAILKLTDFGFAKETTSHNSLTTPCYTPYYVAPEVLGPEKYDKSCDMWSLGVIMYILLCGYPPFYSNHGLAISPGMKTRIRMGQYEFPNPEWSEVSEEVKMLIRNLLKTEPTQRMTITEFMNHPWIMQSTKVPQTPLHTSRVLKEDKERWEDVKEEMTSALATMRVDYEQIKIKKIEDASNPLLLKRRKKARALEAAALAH
Sequence of CK2a1 (P68400 whole entry): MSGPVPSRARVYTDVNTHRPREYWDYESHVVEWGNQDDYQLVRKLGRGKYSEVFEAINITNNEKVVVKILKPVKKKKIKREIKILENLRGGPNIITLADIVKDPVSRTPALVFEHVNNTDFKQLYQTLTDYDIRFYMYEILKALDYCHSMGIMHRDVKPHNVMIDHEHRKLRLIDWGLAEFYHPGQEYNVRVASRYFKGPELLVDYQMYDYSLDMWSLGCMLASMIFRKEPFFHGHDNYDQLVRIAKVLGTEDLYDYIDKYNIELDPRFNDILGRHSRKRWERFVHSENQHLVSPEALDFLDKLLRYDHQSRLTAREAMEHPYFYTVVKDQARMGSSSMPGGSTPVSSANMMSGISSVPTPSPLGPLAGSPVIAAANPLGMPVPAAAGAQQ
Sequence of CaMK2b (Q13554 whole entry): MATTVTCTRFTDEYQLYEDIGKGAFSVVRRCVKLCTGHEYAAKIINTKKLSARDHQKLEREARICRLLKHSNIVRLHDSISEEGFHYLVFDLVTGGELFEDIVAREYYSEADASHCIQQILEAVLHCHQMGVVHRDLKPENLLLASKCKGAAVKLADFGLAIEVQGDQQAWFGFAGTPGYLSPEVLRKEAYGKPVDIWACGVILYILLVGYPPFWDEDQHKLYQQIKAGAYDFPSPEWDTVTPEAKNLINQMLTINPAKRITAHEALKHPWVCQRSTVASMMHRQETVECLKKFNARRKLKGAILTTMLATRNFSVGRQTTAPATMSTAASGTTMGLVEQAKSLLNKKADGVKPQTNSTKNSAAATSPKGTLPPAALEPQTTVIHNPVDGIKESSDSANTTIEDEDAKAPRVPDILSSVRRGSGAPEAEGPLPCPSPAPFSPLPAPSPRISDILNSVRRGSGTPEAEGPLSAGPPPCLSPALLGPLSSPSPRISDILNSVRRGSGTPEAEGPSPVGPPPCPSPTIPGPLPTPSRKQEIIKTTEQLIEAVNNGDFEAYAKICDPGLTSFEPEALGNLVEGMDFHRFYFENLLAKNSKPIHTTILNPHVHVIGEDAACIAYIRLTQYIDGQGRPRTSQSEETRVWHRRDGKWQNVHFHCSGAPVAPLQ
Sequence of FGFR2 (P21802 whole entry): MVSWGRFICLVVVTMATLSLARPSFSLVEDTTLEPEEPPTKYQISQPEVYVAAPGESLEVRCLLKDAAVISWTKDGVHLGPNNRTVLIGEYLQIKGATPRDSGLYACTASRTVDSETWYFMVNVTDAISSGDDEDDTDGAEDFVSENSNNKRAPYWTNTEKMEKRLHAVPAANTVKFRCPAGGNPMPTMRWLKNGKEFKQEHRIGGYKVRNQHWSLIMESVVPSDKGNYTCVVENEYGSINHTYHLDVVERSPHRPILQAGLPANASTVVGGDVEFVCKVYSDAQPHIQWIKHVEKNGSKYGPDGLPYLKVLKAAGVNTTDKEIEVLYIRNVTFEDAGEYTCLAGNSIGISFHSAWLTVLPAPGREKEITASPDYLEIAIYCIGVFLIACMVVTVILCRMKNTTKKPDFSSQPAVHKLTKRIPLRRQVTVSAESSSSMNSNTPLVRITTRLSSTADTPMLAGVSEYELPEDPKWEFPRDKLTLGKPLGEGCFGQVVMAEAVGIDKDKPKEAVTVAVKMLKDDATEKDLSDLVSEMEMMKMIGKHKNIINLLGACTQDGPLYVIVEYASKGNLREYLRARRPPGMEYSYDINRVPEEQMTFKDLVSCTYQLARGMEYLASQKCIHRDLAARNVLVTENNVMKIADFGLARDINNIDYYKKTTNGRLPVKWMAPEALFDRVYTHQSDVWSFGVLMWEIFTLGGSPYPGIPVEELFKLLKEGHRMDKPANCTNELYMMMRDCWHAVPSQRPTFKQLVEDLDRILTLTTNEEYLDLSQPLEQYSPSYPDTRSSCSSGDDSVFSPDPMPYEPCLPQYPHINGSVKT

SMILES: CNc1ncc2cc(-c3cc(Cl)ccc3Br)c(=O)n(CCCCN)c2n1 [compound 10, 8-(4-Aminobutyl)-6-(2-bromo-5-chlorophenyl)-2-(methylamino)pyrido[2,3-d]pyrimidin-7(8H)-one]
- ΔTm at 10 µM (AurA; read-out: dTm 10): 2 °C
- ΔTm at 10 µM (CASK; read-out: dTm 10): 0 °C
- ΔTm at 10 µM (CK2a1; read-out: dTm 10): 1.3 °C
- ΔTm at 10 µM (CaMK2b; read-out: dTm 10): 0.3 °C
- ΔTm at 10 µM (FGFR2; read-out: dTm 10): 3.3 °C
- ΔTm at 10 µM (Haspin; read-out: dTm 10): 0.6 °C
- ΔTm at 10 µM (MAPKAPK2; read-out: dTm 10): 0 °C
- ΔTm at 10 µM (NQO2A; read-out: dTm 10): 0.6 °C
- ΔTm at 10 µM (PAK4; read-out: dTm 10): 1.3 °C

SMILES: CNc1ncc2cc(-c3cc(Cl)ccc3Cl)c(=O)n(CCCCN)c2n1 [compound 8, 8-(4-Aminobutyl)-6-(2,5-dichlorophenyl)-2-(methylamino)pyrido[2,3-d]pyrimidin-7(8H)-one]
- ΔTm at 10 µM (AurA; read-out: dTm 8): 1.9 °C
- ΔTm at 10 µM (CASK; read-out: dTm 8): -0.2 °C
- ΔTm at 10 µM (CK2a1; read-out: dTm 8): 1.1 °C
- ΔTm at 10 µM (CaMK2b; read-out: dTm 8): 0.2 °C
- ΔTm at 10 µM (FGFR2; read-out: dTm 8): 4.1 °C
- ΔTm at 10 µM (Haspin; read-out: dTm 8): 0.6 °C
- ΔTm at 10 µM (MAPKAPK2; read-out: dTm 8): 0 °C
- ΔTm at 10 µM (NQO2A; read-out: dTm 8): 0.5 °C

SMILES: CNc1ncc2cc(-c3cc(C(F)(F)F)ccc3Cl)c(=O)n(CCCCN)c2n1 [compound 9, 8-(4-Aminobutyl)-6-(2-chloro-5-(trifluoromethyl)phenyl)-2-(methylamino)pyrido[2,3-d]pyrimidin-7(8H)-one]
- ΔTm at 10 µM (AurA; read-out: dTm 9): 1.3 °C
- ΔTm at 10 µM (CASK; read-out: dTm 9): -0.1 °C
- ΔTm at 10 µM (CK2a1; read-out: dTm 9): 0.1 °C
- ΔTm at 10 µM (CaMK2b; read-out: dTm 9): 0.1 °C
- ΔTm at 10 µM (FGFR2; read-out: dTm 9): 2.1 °C
- ΔTm at 10 µM (Haspin; read-out: dTm 9): 0.1 °C
- ΔTm at 10 µM (MAPKAPK2; read-out: dTm 9): -0.1 °C
- ΔTm at 10 µM (NQO2A; read-out: dTm 9): -0.3 °C
- ΔTm at 10 µM (PAK4; read-out: dTm 9): 0.5 °C

SMILES: CNc1ncc2cc(-c3cc(Br)ccc3Br)c(=O)n(CCCCN)c2n1 [compound 11, 8-(4-Aminobutyl)-6-(2,5-dibromophenyl)-2-(methylamino)pyrido[2,3-d]pyrimidin-7(8H)-one]
- ΔTm at 10 µM (AurA; read-out: dTm 11): 1.9 °C
- ΔTm at 10 µM (CASK; read-out: dTm 11): -0.3 °C
- ΔTm at 10 µM (CK2a1; read-out: dTm 11): 1.1 °C
- ΔTm at 10 µM (CaMK2b; read-out: dTm 11): 0.3 °C
- ΔTm at 10 µM (FGFR2; read-out: dTm 11): 3.4 °C
- ΔTm at 10 µM (Haspin; read-out: dTm 11): 0.7 °C
- ΔTm at 10 µM (MAPKAPK2; read-out: dTm 11): 0 °C
- ΔTm at 10 µM (NQO2A; read-out: dTm 11): 0.3 °C
- ΔTm at 10 µM (PAK4; read-out: dTm 11): 1.1 °C

SMILES: CNc1ncc2cc(-c3cc(F)c(-c4cccc(C)n4)cc3F)c(=O)n(CCCCN)c2n1 [compound 12, 8-(4-Aminobutyl)-6-(2,5-difluoro-4-(6-methylpyridin-2-yl)phenyl)-2-(methylamino)pyrido[2,3-d]pyrimidin-7(8H)-one]
- ΔTm at 10 µM (AurA; read-out: dTm 12): -2.4 °C
- ΔTm at 10 µM (CASK; read-out: dTm 12): -0.2 °C
- ΔTm at 10 µM (CK2a1; read-out: dTm 12): -0.2 °C
- ΔTm at 10 µM (CaMK2b; read-out: dTm 12): -0.4 °C
- ΔTm at 10 µM (FGFR2; read-out: dTm 12): 1.1 °C
- ΔTm at 10 µM (Haspin; read-out: dTm 12): -0.4 °C
- ΔTm at 10 µM (MAPKAPK2; read-out: dTm 12): -0.3 °C
- ΔTm at 10 µM (NQO2A; read-out: dTm 12): 0.2 °C
- ΔTm at 10 µM (PAK4; read-out: dTm 12): 1.8 °C
